Measured values from ChEMBL document CHEMBL5532691, “Anti-cancer activity and mechanism of flurbiprofen organoselenium compound RY-1-92 in non-small cell lung cancer” (RSC Med Chem, 2024).

Test system: BEAS-2B
Experiment: Cytotoxicity against human BEAS-2B cells assessed as reduction in cell viability at 1.2 mM measured after 48 hrs by MTT assay
Format: toxicity, cell-based
Conditions: 1200 µM

CC1=C(CC(=O)O)c2cc(F)ccc2/C1=C\c1ccc([S+](C)[O-])cc1 (stereo unspecified) [SULINDAC]
Activity: Toxic
